Results published in patent EP2298778A1, “IMIDAZOTHIAZOLE DERIVATIVE HAVING 4,7-DIAZASPIROÝ2.5¨OCTANE RING STRUCTURE” (Daiichi Sankyo Company, Limited, priority 2008, dated 2009).

Assay: Metabolic stability test (microsomal metabolism test)
Assay type: in vitro ADME
Details: pH 7.4; human-derived liver microsomes, test compound remaining after addition of NADP+ and incubation at 37°C for 30 minutes; read-out: metabolic stability of T/C%
Procedure: (Test Example 3 Metabolic stability test) 100 µL of 100 mM phosphate buffer solution (pH 7.4) containing 3 µM test compound was added to 100 µL of reaction solution containing 100 mM phosphate buffer solution (pH 7.4), 30 mM glucose 6-phosphate, 10 mM MgCl2·6H2O, 3 units/mL glucose 6-phosphate 1-dehydrogenase, and 0.3 to 1.5 mgP/mL human liver microsomes and the mixture was incubated at 37°C for 20 minutes. Then, 70 µL of 100 mM phosphate buffer solution (pH 7.4) containing 3 mM NADP^+ was added and the mixture was incubated at 37°C for 30 minutes to conduct a microsomal metabolism test. The metabolic stability was calculated according to the following formula: T/C (%) = ((concentration of test compound after addition of NADP)^+and incubation for30minutes)/((concentration of test compound before addition of NADP)^+) × 100. [formula] […]

| remaining at 0.5 h [%] | Structure (SMILES) |
| --- | --- |
| ≥ 50 | CC(C)C1=C(C(=O)N2[C@H](C)CC[C@H]2C(=O)N2CCNC3(CC3)C2)SC2=N[C@@](C)(c3ccc(Cl)cc3)[C@@H](c3ccc(Cl)cc3)N21 [Example 1, 7-[(5R)-1-{[(5R,6S)-5,6-bis(4-chlorophenyl)-3-isopropyl-6-methyl-5,6-dihydroimidazo[2,1-b][1,3]thiazol-2-yl]carbonyl}-5-methyl-L-prolyl]-4,7-diazaspiro[2.5]octane] |
| ≥ 50 | CC(C)C1=C(C(=O)N2[C@H](C)CC[C@H]2C(=O)N2CCN(C)C3(CC3)C2)SC2=N[C@@](C)(c3ccc(Cl)cc3)[C@@H](c3ccc(Cl)cc3)N21 [Example 2, 7-[(5R)-1-{[(5R,6S)-5,6-bis(4-chlorophenyl)-3-isopropyl-6-methyl-5,6-dihydroimidazo[2,1-b][1,3]thiazol-2-yl]carbonyl}-5-methyl-L-prolyl]-4-methyl-4,7-diazaspiro[2.5]octane] |
| ≥ 50 | CC(C)C1=C(C(=O)N2[C@H](C)CC[C@H]2C(=O)N2CCN(CCO)C3(CC3)C2)SC2=N[C@@](C)(c3ccc(Cl)cc3)[C@@H](c3ccc(Cl)cc3)N21 [Example 3, 2-{7-[(5R)-1-{[(5R,6S)-5,6-bis(4-chlorophenyl)-3-isopropyl-6-methyl-5,6-dihydroimidazo[2,1-b][1,3]thiazol-2-yl]carbonyl}-5-methyl-L-prolyl]-4,7-diazaspiro[2.5]oct-4-yl}ethanol] |
| ≥ 50 | CC(C)C1=C(C(=O)N2[C@H](C)CC[C@H]2C(=O)N2CCNC3(CC3)C2)SC2=N[C@@](C)(c3ccc(Cl)cc3)[C@@H](c3ccc(Cl)c(F)c3)N21 [Example 5, 7-[(5R)-1-{[(5R,6S)-5-(4-chloro-3-fluorophenyl)-6-(4-chlorophenyl)-3-isopropyl-6-methyl-5,6-dihydroimidazo[2,1-b][1,3]thiazol-2-yl]carbonyl}-5-methyl-L-prolyl]-4,7-diazaspiro[2.5]octane] |
| ≥ 50 | CC(C)C1=C(C(=O)N2[C@H](C)CC[C@H]2C(=O)N2CCN(C)C3(CC3)C2)SC2=N[C@@](C)(c3ccc(Cl)cc3)[C@@H](c3ccc(Cl)c(F)c3)N21 [Example 6, 7-[(5R)-1-{[(5R,6S)-5-(4-chloro-3-fluorophenyl)-6-(4-chlorophenyl)-3-isopropyl-6-methyl-5,6-dihydroimidazo[2,1-b][1,3]thiazol-2-yl]carbonyl}-5-methyl-L-prolyl]-4-methyl-4,7-diazaspiro[2.5]octane] |
| ≥ 50 | CC(C)C1=C(C(=O)N2[C@H](C)CC[C@H]2C(=O)N2CCN(CCO)C3(CC3)C2)SC2=N[C@@](C)(c3ccc(Cl)cc3)[C@@H](c3ccc(Cl)c(F)c3)N21 [Example 7, 2-{7-[(5R)-1-{[(5R,6S)-5-(4-chloro-3-fluorophenyl)-6-(4-chlorophenyl)-3-isopropyl-6-methyl-5,6-dihydroimidazo[2,1-b][1,3]thiazol-2-yl]carbonyl}-5-methyl-L-prolyl]-4,7-diazaspiro[2.5]oct-4-yl}ethanol] |
| ≥ 50 | CC(C)C1=C(C(=O)N2[C@H](C)CC[C@H]2C(=O)N2CCNC3(CC3)C2)SC2=N[C@@](C)(c3ccc(Cl)nc3)[C@@H](c3ccc(Cl)cc3)N21 [Example 8, 7-[(5R)-1-{[(5R,6S)-5-(4-chlorophenyl)-6-(6-chloropyridin-3-yl)-3-isopropyl-6-methyl-5,6-dihydroimidazo[2,1-b][1,3]thiazol-2-yl]carbonyl}-5-methyl-L-prolyl]-4,7-diazaspiro[2.5]octane] |
| ≥ 50 | CC(C)C1=C(C(=O)N2[C@H](C)CC[C@H]2C(=O)N2CCN(C)C3(CC3)C2)SC2=N[C@@](C)(c3ccc(Cl)nc3)[C@@H](c3ccc(Cl)cc3)N21 [Example 9, 7-[(5R)-1-{[(5R,6S)-5-(4-chlorophenyl)-6-(6-chloropyridin-3-yl)-3-isopropyl-6-methyl-5,6-dihydroimidazo[2,1-b][1,3]thiazol-2-yl]carbonyl}-5-methyl-L-prolyl]-4-methyl-4,7-diazaspiro[2.5]octane] |
| ≥ 50 | CC(C)C1=C(C(=O)N2[C@H](C)CC[C@H]2C(=O)N2CCN(CCO)C3(CC3)C2)SC2=N[C@@](C)(c3ccc(Cl)nc3)[C@@H](c3ccc(Cl)cc3)N21 [Example 10, 2-{7-[(5R)-1-{[(5R,6S)-5-(4-chlorophenyl)-6-(6-chloropyridin-3-yl)-3-isopropyl-6-methyl-5,6-dihydroimidazo[2,1-b][1,3]thiazol-2-yl]carbonyl}-5-methyl-L-prolyl]-4,7-diazaspiro[2.5]oct-4-yl}ethanol] |
| ≥ 50 | CC(C)C1=C(C(=O)N2[C@H](C)CC[C@H]2C(=O)N2CCNC3(CC3)C2)SC2=N[C@@](C)(c3ccc(Cl)nc3)[C@@H](c3ccc(Cl)c(F)c3)N21 [Example 11, 7-[(5R)-1-{[(5R,6S)-5-(4-chloro-3-fluorophenyl)-6-(6-chloropyridin-3-yl)-3-isopropyl-6-methyl-5,6-dihydroimidazo[2,1-b] [1,3]thiazol-2-yl]carbonyl}-5-methyl-L-prolyl]-4,7-diazaspiro[2.5]octane] |
| ≥ 50 | CC(C)C1=C(C(=O)N2[C@H](C)CC[C@H]2C(=O)N2CCN(C)C3(CC3)C2)SC2=N[C@@](C)(c3ccc(Cl)nc3)[C@@H](c3ccc(Cl)c(F)c3)N21 [Example 12, 7-[(5R)-1-{[(5R,6S)-5-(4-chloro-3-fluorophenyl)-6-(6-chloropyridin-3-yl)-3-isopropyl-6-methyl-5,6-dihydroimidazo[2,1-b][1,3]thiazol-2-yl]carbonyl}-5-methyl-L-prolyl]-4-methyl-4,7-diazaspiro[2.5]octane] |
| ≥ 50 | CC(C)C1=C(C(=O)N2[C@H](C)CC[C@H]2C(=O)N2CCN(CCO)C3(CC3)C2)SC2=N[C@@](C)(c3ccc(Cl)nc3)[C@@H](c3ccc(Cl)c(F)c3)N21 [Example 13] |
| ≥ 50 | CCN1CCN(C(=O)[C@@H]2CC[C@@H](C)N2C(=O)C2=C(C(C)C)N3C(=N[C@@](C)(c4ccc(Cl)nc4)[C@H]3c3ccc(Cl)c(F)c3)S2)CC12CC2 [Example 14, 7-[(5R)-1-{[(5R,6S)-5-(4-chloro-3-fluorophenyl)-6-(6-chloropyridin-3-yl)-3-isopropyl-6-methyl-5,6-dihydroimidazo[2,1-b][1,3]thiazol-2-yl]carbonyl}-5-methyl-L-prolyl]-4-ethyl-4,7-diazaspiro[2.5]octane] |
| ≥ 50 | CC(C)C1=C(C(=O)N2[C@H](C)CC[C@H]2C(=O)N2C[C@@H](C)NC3(CC3)C2)SC2=N[C@@](C)(c3ccc(Cl)cc3)[C@@H](c3ccc(Cl)cc3)N21 [Example 16, (5R)-7-[(5R)-1-{[(5R,6S)-5,6-bis(4-chlorophenyl)-3-isopropyl-6-methyl-5,6-dihydroimidazo[2,1-b][1,3]thiazol-2-yl]carbonyl}-5-methyl-L-prolyl]-5-methyl-4,7-diazaspiro[2.5]octane] |
| ≥ 50 | CC(C)C1=C(C(=O)N2[C@H](C)CC[C@H]2C(=O)N2C[C@@H](C)NC3(CC3)C2)SC2=N[C@@](C)(c3ccc(Cl)nc3)[C@@H](c3ccc(Cl)c(F)c3)N21 [Example 17, (5R)-7-[(5R)-1-{ [(5R,6S)-5-(4-chloro-3-fluorophenyl)-6-(6-chloropyridin-3-yl)-3-isopropyl-6-methyl-5,6-dihydroimidazo[2,1-b][1,3]thiazol-2-yl]carbonyl}-5-methyl-L-prolyl]-5-methyl-4,7-diazaspiro[2.5]octane] |
